Assays:
[1] = tested on: rats; assay: Nicotine withdrawal model using the acoustic startle reflex in rats; format: in vivo, rat; details: for example 30 mg/kg/day following nicotine withdrawal (nicotine 6 mg/kg/day s.c. for 12 days)
Method: The effects of MCI-225 are investigated in a model of nicotine withdrawal using the acoustic startle reflex in rats (see e.g. Helton et al, 1997, Neuropharmacology 36 (11-12):1511-1516). Nicotine (6 mg/kg/day) is administered for 12 days subcutaneously by osmotic minipumps. After 12 days, the pumps are removed and the animals allowed to go through spontaneous withdrawal. Cessation of chronic nicotine exposure leads to increased startle responses (sensorimotor reactivity) for 4 days following withdrawal.

[2] = tested on: rats; assay: Transient middle cerebral artery occlusion model in rats; format: in vivo, rat; details: 30 mg/kg, for example 2 hours after onset of occlusion, vs vehicle-treated animals
Description: The effects of MCI-225 are studied in a transient middle cerebral artery occlusion model in rats (see Chen et al, 1999, J. Neurol. Sci. 171(1):24-30). In particular, effects on an array of functional measures are studied, including rotarod, adhesive-backed somatosensory and neurological scores.

[3] = tested on: alcohol-preferring rats; assay: Alcohol intake in alcohol-preferring rats; format: in vivo, rat; details: 30 mg/kg/day orally over 4 consecutive days, vs vehicle
Method: The effects of MCI-225 are determined in alcohol-preferring rats. Because of their pattern of drinking, these animals seem to represent a valid model of the human condition of alcoholism (McBride et al, 1990, Alcohol 7:199-205, Lankford et al, 1991, Pharmacol. Biochem. Behav., 8:293-299). After maximally preferred alcohol concentrations had stabilised for 4 days, MCI-225 at 30 mg/kg/day orally or vehicle was administered over 4 consecutive days.

[4] = tested on: ferret; assay: Cisplatin-induced emesis in the ferret; format: in vivo; details: 30 mg/kg orally 1 hour prior to cisplatin, vs control animals
Description: The effects of MCI-225 are studied against cisplatin-induced emesis in the ferret (see Florczyk et al, 1982, Cancer Treat. Rep. 66(1):187-189). […] Efficacy against cisplatin predicts efficacy against radiation-induced nausea/vomiting.

[5] = tested on: adult female obese Zucker rats; assay: Obesity and weight gain in obese Zucker rats over 32 days; format: in vivo, rat; details: 30 mg/kg orally once daily, vs vehicle group
Method: MCI-225 is evaluated in adult female obese Zucker rats over a period of 32 days. A control group of 6 animals is dosed daily with vehicle alone whilst a second group of 6 weight-matched animals receives MCI-225 at 30 mg/kg given orally once daily. Food is available ad libitum, except on days 0, 7, 14, 21, 28 and 32 when food was removed from the animals at 7.30 am and animals weighed within 2 hours following removal of food. Food is supplied after weights of animals are measured.

Question: Which “enhanced auditory startle response following withdrawal of nicotine” value [1] does the source give for `Cc1cc2c(-c3ccccc3F)nc(N3CCNCC3)nc2s1.Cl.O` [MCI-225] here?
Answer: The value was “attenuation of the enhanced auditory startle response”.

Question: What about the “functional scores (rotarod, adhesive-backed somatosensory, neurological) following ischaemia” value [2] of the same compound?
Answer: Its value is “improvement in one or more of the functional scores”.

Question: And the “intake of alcohol in terms of absolute g/kg and/or proportion of alcohol to total fluid intake” value [3]?
Answer: The value was “reduction in intake of alcohol”.

Question: And the emetic response [4]?
Answer: Its emetic response is “reduction in the emetic response”.

Question: And the body weights [5]?
Answer: The body weights was “lower body weights”.
